# How the values were obtained:
# mantle cell lymphoma [1] = assay: Phase II study of low dose single-agent CCI-779, 25 mg/week, in relapsed mantle cell lymphoma; format: in vivo, human
# Procedure: Eleven patients (4 refractory, […], ranging from 55 to 85 years old) with MCL were enrolled in a Phase II study of CCI-779 and were treated as described in Example 1 above, with the exception that they received a 10-fold lower dose than in Example 1, i.e., 25 mg/week. Eight patients (73%) were in stage 4, two (18%) in stage 3, and 4 (36%) had ≧2 extranodal sites. Patients had received a median of 3 prior therapies (range, 1-7) and 3 were refractory to their last treatment.
# [2] = Stability of CCI-779 in parenteral cosolvent formulation with antioxidant/chelating agent; format: physicochemical; details: citric acid at a concentration of less than 0.01% w/v
# Description: In this embodiment, the stability of a CCI-779 in parenterally acceptable alcoholic cosolvents is enhanced by addition of an antioxidant to the formulation. Acceptable antioxidants include, but are not limited to, citric acid, d,l-α-tocopherol, BHA, BHT, monothioglycerol, ascorbic acid, propyl gallate, and mixtures thereof. Generally, the parenteral formulations useful in this embodiment of the invention will contain an antioxidant component(s) in a concentration ranging from 0.001% to 1% w/v, or 0.01% to 0.5% w/v, of the cosolvent concentrate, although lower or higher concentrations may be desired. Of the antioxidants, d,l-α-tocopherol is particularly desirable and is used at a concentration of 0.01 to 0.1% w/v with a preferred concentration of 0.075% w/v of the cosolvent concentrate.
# Examples of such chelating agents include, e.g., citric acid, acetic acid, and ascorbic acid (which may function as both a classic antioxidant and a chelating agent in the present formulations). Other chelating agents include such materials as are capable of binding metal ions in solution, such as ethylene diamine tetra acetic acid (EDTA), its salts, or amino acids such as glycine are capable of enhancing the stability of a CCI-779. […] Optimal concentrations for the selected antioxidant(s) can be readily determined by one of skill in the art, based upon the information provided herein.
# [3] = Safety and tolerability in the phase II trial of CCI-779 250 mg IV weekly; format: in vivo, human
# Procedure: (§1) Patients were treated with a flat dose of 250 mg of CCI-779 diluted in 250 mL of normal saline and delivered IV over 30 minutes. Patients were pretreated with diphenhydramine 25-50 mg IV. Treatment was weekly and a cycle was considered 4 weeks. A complete blood count was performed each week and a full dose delivered if the platelet count was ≧50,000 and the ANC≧1000 and there was no grade 3 non-hematologic toxicity (using the NCI Common Toxicity Criteria version 2). […] Patients were not to receive prophylactic white blood cell growth factors to maintain dosing but could receive them at time of neutropenia at physician discretion. Erythropoietin could be used.
# All 35 patients were included in the analysis of safety and tolerability. During the 30 minute infusion, CCI-779 was well-tolerated and there were no significant toxicities that occurred. Thrombocytopenia was the cause of most dose reductions and was rapidly reversible with drug delays of typically only one week. Only three patients required platelet transfusions, and four patients required red blood cell transfusions. Thirteen patients experienced grade 3 infections without concomitant neutropenia; two patients had febrile neutropenia and three had infection (grade 3) with neutropenia. […] The conclusion was that this was idiopathic Bell's palsy and indeed it eventually resolved. A possible relationship to CCI-779 could not be established nor eliminated. The patient who experienced blurred vision was diagnosed with retinitis due to reactivation of cytomegalovirus (CMV) infection.
# mantle cell lymphoma [4] = assay: Phase II trial of single-agent CCI-779, 250 mg IV weekly, in relapsed mantle cell lymphoma (NCCTG); format: in vivo, human
# Procedure: The ability of a CCI-779 to treat or inhibit mantle cell lymphoma was evaluated in a clinical trial. Briefly, 18 patients (mean age 72 years, range 38-89 years) were treated with an intravenous dose of 250 mg CCI-779 on days 1, 8, 15, and 22 of a 4 week treatment cycle, for up to a maximum of 12 cycles. Of these patients, 15 were stage IV, 2 were stage III, and 1 was stage II. […] Only 3 patients progressed before the end of the cycle. Based on the results obtained in this clinical trial, CCI-779 is useful in the treatment or inhibition of mantle cell lymphoma.
# This study was conducted through the North Central Cancer Treatment Group (NCCTG) cooperative group. Patients were eligible for this trial if they had previously received therapy and had relapsed. There was no limit on the number of prior therapies. All histologies were confirmed to be mantle cell lymphoma by central pathology review. Cyclin-D1 positivity was required by immunohistochemistry or t(11;14) detected by FISH. Patients were required to have measurable disease with a lymph node or tumor mass≧2 cm or malignant lymphocytosis with an ALC≧5,000; a life expectancy of ≧3 months, ECOG performance status of 0, 1, or 2; absolute neutrophil count (ANC)≧1,000; platelets≧75,000; hemoglobin≧8 g/dL; serum creatinine≦2× the upper limit of normal (UNL); serum bilirubin≦1.5 UNL; serum cholesterol≦350 mg/dL; and triglycerides≦400 mg/dL. Patients could not have known central nervous system involvement or HIV infection.
# as §1
# Patients were restaged after 1, 3, and 6 cycles and the response assessed as per the international workshop criteria. [B. D. Cheson, et al., “Report of an International Workshop to Standardize Response Criteria for Non-Hodgkin's Lymphomas”, Journal of Clinical Oncology, Vol 17, Issue 4 (April), 1999: 1244]. Patients who progressed anytime or those patients with stable disease after 6 cycles went off study.
# A single stage phase II study with an interim analysis was conducted to assess the proportion of previously treated mantle cell lymphoma patients who achieved a PR or better after treatment with CCI-779. This trial was designed to test the null hypothesis that the true response rate was at most 0.05. The smallest response rate that would indicate that this regimen was worth further study in this patient population was 0.20. The design was generated based on the parameters and assumptions of a two-stage Simon MinMax™ design, but where accrual was not suspended for the interim analysis. This study design required a maximum of 32 evaluable patients, where the interim analysis was performed after 18 patients had been accrued and followed for at least 24 weeks. An additional 3 patients were accrued to this cohort (for a maximum of 35 patients overall) to account for the possibilities of ineligibility, withdrawal from study prior to drug administration, or major violations. However, only the first 32 evaluable patients were used to evaluate the decision criteria for this design. At least one response in the first 18 evaluable patients needed to be observed in the interim analysis to continue accrual. At the time of the final analyses, a total of four or more responses were required to indicate that this regimen warrants further evaluation in this patient population. […]
# [5] = overall, median follow-up 11 months
smiles,measurement,setting,value
"CO[C@H]1C[C@@H]2CC[C@@H](C)[C@@](O)(O2)C(=O)C(=O)N2CCCC[C@H]2C(=O)O[C@H]([C@H](C)C[C@@H]2CC[C@@H](OC(=O)C(C)(CO)CO)[C@H](OC)C2)CC(=O)[C@H](C)/C=C(\C)[C@@H](O)[C@@H](OC)C(=O)[C@H](C)C[C@H](C)/C=C/C=C/C=C/1C [CCI-779, rapamycin 42-ester with 3-hydroxy-2-(hydroxymethyl)-2-methylpropionic acid]",overall response rate,mantle cell lymphoma [1]; 7/11 patients,64%
same,number of PRs,mantle cell lymphoma [1]; 11 patients,7
same,effect of citric acid on stability of CCI-779,[2],enhanced the stability
same,"adverse event, all grades: AST elevations",[3]; 35 patients,43%
same,"adverse event, all grades: abnormal taste",[3]; 35 patients,43%
same,"adverse event, all grades: anemia",[3]; 35 patients,66%
same,"adverse event, all grades: fatigue",[3]; 35 patients,66%
same,"adverse event, all grades: hypercholesterolemia",[3]; 35 patients,40%
same,"adverse event, all grades: hyperglycemia",[3]; 35 patients,91%
same,"adverse event, all grades: increased triglycerides",[3]; 35 patients,77%
same,"adverse event, all grades: infection without concomitant neutropenia",[3]; 35 patients,63%
same,"adverse event, all grades: loss of appetite",[3]; 35 patients,40%
same,"adverse event, all grades: mucositis",[3]; 35 patients,71%
same,"adverse event, all grades: nausea",[3]; 35 patients,49%
same,"adverse event, all grades: neutropenia",[3]; 35 patients,77%
same,"adverse event, all grades: rash",[3]; 35 patients,51%
same,"adverse event, all grades: sensory neurophathy",[3]; 35 patients,37%
same,"adverse event, all grades: thrombocytopenia",[3]; 35 patients,100%
same,"adverse event, all grades: weight loss",[3]; 35 patients,46%
same,grade 5 events (deaths on treatment),[3]; 35 patients,No grade 5 events
same,patients requiring platelet transfusions,[3]; 35 patients,three
same,patients requiring red blood cell transfusions,[3]; 35 patients,four
same,patients with febrile neutropenia,[3]; 35 patients,two
same,patients with grade 3 infections without concomitant neutropenia,[3]; 35 patients,Thirteen
same,patients with infection (grade 3) with neutropenia,[3]; 35 patients,three
same,tolerability during the 30 minute infusion,[3]; 35 patients,well-tolerated
same,median time to discontinuation of treatment,[3]; 95% CI 3-6.2 months,3.7 months
same,patients who went off treatment due to adverse reactions,[3]; of 28 patients who discontinued treatment,7
same,dose reductions necessary,[3]; starting dose 250 mg weekly,all but 4 patients
same,overall response rate (ORR),"mantle cell lymphoma [4]; 13/34 patients, 250 mg IV weekly, 90% CI 24%-54%",38%
same,median duration of response,"mantle cell lymphoma [4]; 13 responders, 95% CI 4-13.2 months",5.7 months
same,overall response rate,"mantle cell lymphoma [4]; 18 patients, 250 mg IV days 1, 8, 15, 22 of 4 week cycle, 95% CI 24%-68%",44.4%
same,patients progressed before the end of the cycle,"mantle cell lymphoma [4]; 18 patients, 250 mg IV weekly",3 patients
same,patients with complete response (CR),"mantle cell lymphoma [4]; 18 patients, 250 mg IV weekly",One
same,patients with partial response (PR),"mantle cell lymphoma [4]; 18 patients, 250 mg IV weekly",7 patients
same,number of CR,"mantle cell lymphoma [4]; 34 patients, 250 mg IV weekly",1
same,number of PRs,"mantle cell lymphoma [4]; 34 patients, 250 mg IV weekly",12
same,median time to progression,mantle cell lymphoma [4]; 95% CI 3.8-9.4 months,6.2 months
same,median overall survival,mantle cell lymphoma [4]; 95% CI 6.7 months to not yet reached,12 months
same,responses after 4 months evaluation,mantle cell lymphoma [4]; of 13 responders,1
same,responses after 8 months evaluation,mantle cell lymphoma [4]; of 13 responders,1
same,responses after the first cycle evaluation,mantle cell lymphoma [4]; of 13 responders,Eight
same,responses documented after 3 cycles,mantle cell lymphoma [4]; of 13 responders,3
same,patients who have died,mantle cell lymphoma [4]; [5],22 patients
same,patients with disease progression,mantle cell lymphoma [4]; [5],29 patients
same,median time to response,mantle cell lymphoma [4]; range 1-8,1 month
same,anti-tumor activity in relapsed MCL,mantle cell lymphoma [4]; single agent,substantial anti-tumor activity
